{"source": "paper PMC10354055", "about": "“An optimized Nurr1 agonist provides disease-modifying effects in Parkinson’s disease models” (Nature Communications, 2023)", "key": {"MPTP-induced male mice [1]": {"system": "MPTP-induced male mice", "test": "IHC/stereology of TH+ fibers, TH+ DA neurons and NeuN+ neurons, MPTP-induced mice", "format": "in vivo, mouse", "details": "MPTP-induced mice, individual animal values", "procedure": "(§1) MPTP (Sigma-Aldrich) was intraperitoneally (i.p.) injected (30 mg/kg) for 5 days (Day 1-5). […] To test dyskinetic involuntary behavior, an L-DOPA injected group was included, which received 50 mg/kg of L-DOPA and 15 mg/kg of benserazide (Sigma-Aldrich) (i.p.) for 16 days (Day 1–16). All compounds were administered 6 h post-MPTP injection to avoid any effect of compounds on the MPTP metabolism in the brain. Motor and non-motor related behavior tests were performed on the following days as described in Fig. 4a in an assessor- and observer-blinded fashion. Pre-training and baseline setup for motor-related behaviors were performed 3 days prior to the injections. Mice were sacrificed and subjected to immunohistochemistry. Mice were housed at the Animal Care Facilities of McLean Hospital under a 12-h light/12-h dark cycle, ambient temperature and humidity. Animals were handled in accordance with McLean Hospital’s Institutional Animal Care and Use Committee (Protocol #: 2015N000002) and followed National Institutes of Health guidelines.\n(§2) Images were acquired using a KEYENCE microscope and quantified as the number or optical density of immunoreactive cells using ImageJ software.\n(§3) The numbers of TH^+ DA neurons, NeuN^+ neurons, pS129 αSyn^+ cells in the SN and Iba-1^+ microglia in the SN and striatum were stereologically counted in six coronal sections (30 µm thickness) taken every 6th section (180 µm intervals) for each brain. The boundaries of the SN and striatum were delimited at low magnification (4X) to estimate each total area. Immunoreactive cells were counted with images taken at high magnification (×40) by a single blinded investigator. The group mean of the total number of immunoreactive cells from each brain was transformed as percentage of the number in the control group (%). For AAV-αSyn-induced mice, the group mean of the total number of cells in the ipsilateral side was transformed as a percentage of that observed in the contralateral side."}, "MPTP-induced male mice [2]": {"system": "MPTP-induced male mice", "test": "AIMs scoring (dyskinesia), MPTP-induced PD model mice", "format": "in vivo, mouse", "details": "for AIMs score (20-140 min): Figure 4f, MPTP-induced mice, individual animal values", "procedure": "Male C57BL/6 J mice (8–10 weeks, 25–30 g; Jackson Laboratories) were randomly assigned to 5 groups including vehicle (VEH), MPTP, MPTP + L-DOPA, MPTP + CQ and MPTP + 4A7C-301 (n ≥ 7 for each group). MPTP (Sigma-Aldrich) was intraperitoneally (i.p.) injected (30 mg/kg) for 5 days (Day 1-5). Different dosages of CQ (20, 40, and 80 mg/kg) and 4A7C-301 (1, 5, 20 mg/kg) were first tested to determine the effective dose window, then 40 and 5 mg/kg doses were finally selected for CQ and 4A7C-301 respectively to show the most prominent effects. CQ or 4A7C-301 was dissolved in PBS and administrated (i.p.) for 16 days starting with MPTP injection (Day 1-16). To test dyskinetic involuntary behavior, an L-DOPA injected group was included, which received 50 mg/kg of L-DOPA and 15 mg/kg of benserazide (Sigma-Aldrich) (i.p.) for 16 days (Day 1–16). All compounds were administered 6 h post-MPTP injection to avoid any effect of compounds on the MPTP metabolism in the brain. Motor and non-motor related behavior tests were performed on the following days as described in Fig. 4a in an assessor- and observer-blinded fashion. Pre-training and baseline setup for motor-related behaviors were performed 3 days prior to the injections. Mice were sacrificed and subjected to immunohistochemistry. Mice were housed at the Animal Care Facilities of McLean Hospital under a 12-h light/12-h dark cycle, ambient temperature and humidity. Animals were handled in accordance with McLean Hospital’s Institutional Animal Care and Use Committee (Protocol #: 2015N000002) and followed National Institutes of Health guidelines.\nAbnormal involuntary movements (AIMs) were scored using the developed mouse dyskinesia rating scale as described in Sebastianutto et al.. Briefly, 4 mice were recorded simultaneously with a Swann HD Security System (B&H Photo-Video Inc.) for 2 min per session, every 20 min during the 140 min following drug injections (i.e., total 7 sessions), on every other or third day (Day 2, 4, 7, 9, 11, 13, and 16). Dyskinetic movements were scored for 3 subtypes of basic AIMs including axial, forelimb and orolingual AIMs, based on the severity scale from 0 to 4 which measures the duration of AIMs (0 = no dyskinesia; 1 = display dyskinesia for <50% of the observation time; 2 = display dyskinesia for >50% of the observation time; 3 = display dyskinesia for the entire observation period but ceased upon external stimuli; 4 = display continuous and unceasing dyskinesia). To get a better and more sensitive validation of mice dyskinesia, we included an amplitude AIMs score, which rates the degree of deviation of body part or muscle position from its resting position on a 0-4 scale as previously described. Finally, global AIMs score was calculated by multiplying basic AIMs and amplitude AIMs scores for each subtype on each session. Data points were plotted as the grand total of individual AIMs score on each testing day."}, "MPTP-induced male mice [3]": {"system": "MPTP-induced male mice", "test": "Olfactory discrimination test, MPTP-induced PD model mice", "format": "in vivo, mouse", "details": "Figure 4e, MPTP-induced mice, individual animal values", "procedure": "as §1\nThe olfactory discrimination test was designed based on Prediger et al.. Briefly, mice were placed in a chamber (40 (w) × 20 (d) × 20 (h) cm) segmented with two identical compartments containing fresh sawdust (non-familiar odor) on one side and unchanged sawdust (familiar odor; maintained for 3 days before the test) on the other side. Mice could choose between one or another area by freely passing through an open door, for 5 min. Mice movements were monitored with EthoVision XT version 7.0 (Noldus) and time (s) and distance (cm) traveled in each compartment were recorded and analyzed."}, "MPTP-induced male mice [4]": {"system": "MPTP-induced male mice", "test": "IHC of Iba-1+ microglia in STR and SNpc, MPTP-induced mice", "format": "in vivo, mouse", "details": "MPTP-induced mice, individual animal values", "procedure": "as §1, §2, §3"}, "MPTP-induced male mice [5]": {"system": "MPTP-induced male mice", "test": "Pole test, MPTP-induced PD model mice", "format": "in vivo, mouse", "procedure": "as §1\nMice were trained to descend a vertical metal rod wrapped with rough tape (80 cm high, 12 mm diameter) once per day for 2 days, and then the baseline was measured before the pole test (3 days before the MPTP injection or the first pole test at week 2). Mice were placed head-upward on the pole and total descent time was recorded."}, "MPTP-induced male mice [6]": {"system": "MPTP-induced male mice", "test": "Cylinder test, MPTP-induced PD model mice", "format": "in vivo, mouse", "procedure": "as §1\nMice were placed in a transparent plastic cylinder (15.5 cm high, 12.7 cm diameter) with a mirror behind it. Spontaneous activity was recorded and measured as counting the number of rearing events for 3 min session. A rear was considered only when the mouse touched the wall of the cylinder with its forelimb paws while standing on its hindlimbs (vertical movement) to count meaningful physiological movements."}, "MPTP-induced male mice [7]": {"system": "MPTP-induced male mice", "test": "Rotarod, sub-chronic MPTP-induced PD model mice", "format": "in vivo, mouse", "procedure": "as §1\nMice were pre-trained on an automated 5-lane rotarod unit (10 rpm, 3 min) for 2 days and the baseline was measured (10 rpm, 90 sec) before the rotarod test (3 days before the MPTP injection or the first rotarod test at week 2). Rotarod measurements were performed using an accelerating protocol, accelerated smoothly from 2 to 30 rpm for 5 min. Time on the rotating rod was measured automatically by placing a trip switch under the floor beneath the rotating drum."}, "Nur77": {"molecular_target": "T1, Nur77 (Homo sapiens, UniProt P22736)", "T1 construct": "using LBD of NR4A subfamily members in SK-N-BE(2)C cells; expressed in transfected cells; host or cells: SK-N-BE(2)C", "T1 sequence (P22736 360-595 limits assumed, species assumed)": "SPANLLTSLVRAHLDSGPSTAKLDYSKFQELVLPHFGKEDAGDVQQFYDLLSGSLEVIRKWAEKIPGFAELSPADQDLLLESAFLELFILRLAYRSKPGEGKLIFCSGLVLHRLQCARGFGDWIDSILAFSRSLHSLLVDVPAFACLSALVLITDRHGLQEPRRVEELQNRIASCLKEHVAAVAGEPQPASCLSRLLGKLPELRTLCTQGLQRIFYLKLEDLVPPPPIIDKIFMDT", "test": "Luciferase reporter assay, Nur77 LBD, SK-N-BE(2)C cells", "format": "cell-based", "details": "Fig. 1f, CQ 100 µM, 4A7C-301 20 µM, cytosporone B 10 µM"}, "[8]": {"details": "CQ 40, 4A7C-301 5, L-DOPA 50 mg/kg/day, i.p., 16 days"}}, "note": "“And” between values parts separate entries of the source, which are not always exact repeats. Equal entries are not always repeated."}
{"smiles": "N[C@@H](Cc1ccc(O)c(O)c1)C(=O)O", "note": "[L-DOPA]", "values": [{"measurement": "TH+ neurons in SNpc (% of control)", "setting": "MPTP-induced male mice [1]; Figure 4j", "value": "85.08 % of control and 29.95 % of control and 41.78 % of control and 36.5 % of control and 16.11 % of control and 47.32 % of control and 20.39 % of control"}, {"measurement": "NeuN+ neurons in SNpc (% of control)", "setting": "MPTP-induced male mice [1]; Figure 4k", "value": "54.87 % of control and 63.58 % of control and 65.33 % of control and 79.48 % of control"}, {"measurement": "TH fiber density in STR (% of control)", "setting": "MPTP-induced male mice [1]; Figure 4h", "value": "32.4 % of control and 36.19 % of control and 33.35 % of control and 30.68 % of control and 30.71 % of control and 45.79 % of control and 28.8 % of control"}, {"measurement": "abnormal involuntary movements (AIMs) (in words)", "setting": "MPTP-induced male mice [2]; CQ 40, 4A7C-301 5, L-DOPA 50 mg/kg/day, i.p.", "value": "severe AIMs"}, {"measurement": "AIMs score (20-140 min)", "setting": "MPTP-induced male mice [2]; day 2", "value": "7 and 5.5 and 11 (2×) and 6 and 14 and 20 and 4 and 12 and 5 and 16.3"}, {"measurement": "AIMs score (20-140 min)", "setting": "MPTP-induced male mice [2]; day 4", "value": "9 and 13 and 14 and 12 (2×) and 16 (2×) and 17 (2×) and 27 (2×)"}, {"measurement": "AIMs score (20-140 min)", "setting": "MPTP-induced male mice [2]; day 7", "value": "21.5 and 27.5 and 12 and 55 and 25.5 and 35 and 14 and 56 and 31.5 and 46 and 20"}, {"measurement": "AIMs score (20-140 min)", "setting": "MPTP-induced male mice [2]; day 9", "value": "23 (2×) and 26 and 21 (3×) and 19 (2×) and 42 and 18 and 44"}, {"measurement": "AIMs score (20-140 min)", "setting": "MPTP-induced male mice [2]; day 11", "value": "28 and 33 and 23 and 27 and 20 and 35 (2×) and 12 and 55.5 and 30.5 and 61"}, {"measurement": "AIMs score (20-140 min)", "setting": "MPTP-induced male mice [2]; day 13", "value": "63.5 and 30.5 and 43 and 32.5 and 36 and 50 and 34 and 34.5 and 53.25 and 63 and 56"}, {"measurement": "AIMs score (20-140 min)", "setting": "MPTP-induced male mice [2]; day 16", "value": "110.5 and 38.5 (2×) and 56 and 60.5 and 40.5 and 47.5 and 84 and 48.5 and 67.5 and 83.5"}, {"measurement": "Velocity", "setting": "MPTP-induced male mice [3]", "value": "4.7 cm/s and 5.67 cm/s and 6.49 cm/s and 5.88 cm/s and 6.16 cm/s and 7.7 cm/s and 9.82 cm/s and 6.86 cm/s and 7.1 cm/s and 6.45 cm/s and 7.2 cm/s"}, {"measurement": "Duration to stay (sec), New bedding", "setting": "MPTP-induced male mice [3]; New bedding", "value": "183.25 s and 108.99 s and 116.25 s and 132.99 s and 167.47 s and 141.68 s and 212.98 s and 167.63 s and 167.4 s and 102.43 s and 140.79 s"}, {"measurement": "Duration to stay (sec), Old bedding", "setting": "MPTP-induced male mice [3]; Old bedding", "value": "133.6 s and 197.16 s and 159.56 s and 114.75 s and 189.57 s and 183.55 s and 166.31 s and 132.11 s and 158.67 s and 90.56 s and 134.77 s"}, {"measurement": "Iba-1+ cells in STR (% of control)", "setting": "MPTP-induced male mice [4]; Figure 4m", "value": "163.11 % of control and 168.08 % of control and 185.26 % of control and 234.36 % of control and 189.06 % of control and 208.32 % of control and 222.78 % of control"}, {"measurement": "Iba-1+ cells in SNpc (% of control)", "setting": "MPTP-induced male mice [4]; Figure 4n", "value": "319.52 % of control and 324.44 % of control and 366.71 % of control and 419.8 % of control and 373.6 % of control and 282.16 % of control and 446.35 % of control"}, {"measurement": "motor function, pole test (in words)", "setting": "MPTP-induced male mice [5]; [8]", "value": "significantly rescued"}, {"measurement": "Time to traverse", "setting": "MPTP-induced male mice [5]; Figure 4c, MPTP-induced mice, individual animal values", "value": "8.78 s and 7.65 s and 6.89 s and 8.14 s and 4.4 s and 7.41 s and 5.91 s and 7.98 s and 7.2 s and 9.47 s"}, {"measurement": "motor function, cylinder test (in words)", "setting": "MPTP-induced male mice [6]; [8]", "value": "significantly rescued"}, {"measurement": "Number of rearing", "setting": "MPTP-induced male mice [6]; Figure 4d, MPTP-induced mice, individual animal values", "value": "34 and 77 and 71 and 22 and 24 and 17 and 21 and 55 and 32 and 29"}, {"measurement": "motor function, rotarod (in words)", "setting": "MPTP-induced male mice [7]; [8]", "value": "significantly rescued"}, {"measurement": "Latency to fall", "setting": "MPTP-induced male mice [7]; Figure 4b, MPTP-induced mice, individual animal values", "value": "137.97 s and 138.13 s and 80.13 s and 101.23 s and 128.1 s and 204.93 s and 146.8 s and 175.2 s and 116.5 s and 196.07 s"}]}
{"smiles": "CCCCCCCC(=O)c1c(O)cc(O)cc1CC(=O)OCC", "note": "[Cytosporone B, cytosporone B]", "values": [{"measurement": "Luciferase activity (fold), Nur77", "setting": "Nur77", "value": "13.029 fold and 14.4047 fold and 12.8586 fold"}, {"measurement": "Luciferase activity (fold), Nur77", "setting": "Nur77; listed as cytosporone B", "value": "robustly increased"}]}
